One test addresses T1, Lyn B (Homo sapiens, UniProt P07948).
T1 construct: purchased Promega
As to the kind of experiment: Tyrosine kinase assay (Kinase Selectivity System TK-2, ADP-Glo). It is filed as biochemical. Conditions: 1 h incubation, mean ± SD of four experiments. A general note: ADP-Glo turns the ADP formed in a reaction into a luminescent signal.

The subject of another test is K562. As to the kind of experiment: Cytotoxicity studies (MTS), antiproliferative activity. To be noted: for IC50: Homo sapiens, K562, 72 h, MTS; for Selectivity index K562: versus NHDF. It is filed as cell-based, human. The procedure, abridged:
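Antiproliferative effect was judged from MTS conversion, measured as optical density at 490 nm. Compounds were applied at different concentrations for 72 h; reagent incubation lasted 1 h at 37 °C. Each compound ran in triplicate, experiments repeated three or four times.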

A further test deals with U-251. The test is described as above. The class given is cell-based, human. To be noted: for IC50: Homo sapiens, U-251, 72 h, MTS; for Selectivity index U-251: versus NHDF. The procedure, abridged:
(§1)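 Treatment with test compounds lasts 72 h, after which MTS reagent is added and left 1 h at 37 °C before reading optical density at 490 nm.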

The test system of the next test is A549. The test is described as above. The class given is cell-based, human. Conditions: for IC50: Homo sapiens, A549, 72 h, MTS; for Selectivity index A549: versus NHDF. A digest of the protocol:
as §1

A further test has as its system HCT 116 p53+/+. The test is described as above. The class given is cell-based, human. Conditions: for IC50: Homo sapiens, HCT-116, 72 h, MTS; for Selectivity index HCT 116 p53+/+: versus NHDF. A digest of the protocol:
as §1

Another test deals with MCF-7. Described as above. The class given is cell-based, human. Conditions: for IC50: Homo sapiens, MCF7, 72 h, MTS; for Selectivity index MCF-7: versus NHDF. The procedure, abridged: as §1
The next test relates to HCT 116 p53−/−. The test is described as above. It is filed as cell-based, human. Conditions: for IC50: Homo sapiens, HCT-116, 72 h, MTS; for Selectivity index HCT 116 p53-/-: versus NHDF. The procedure, abridged:
as §1

The subject of the next test is PANC-1. Described as above. Conditions: for IC50: Homo sapiens, PANC-1, 72 h, MTS; for Selectivity index PANC-1: versus NHDF. It is filed as cell-based, human.
The next test relates to K562 cells. As to the kind of experiment: Immunoblotting. The class given is cell-based, human. Conditions: 16 h; for Inhibition of expression of Ser473 phosphorylated Akt / Cyclin E1 protein level: IS8 only at 25 µM; for Cyclin E1 protein level: IS10 40 and 20 µM; for STAT5 phosphorylation: at the concentrations used. The text has this: Changes in the expression of the BCR-ABL and ABL proteins and their downstream targets, such as STAT5, Src, Akt and Fyn after treatment with the tested compounds were also examined. As shown in Figure 7(B), no significant changes in the phosphorylation of BCR-ABL were observed after treatment with the tested styrylquinazolines. […] For reference inhibitors, there were greater changes in the expression of this protein. There were also interesting changes in the downstream targets of ABL, STAT5 and Src. […] Unfortunately, contrary to our assumptions and earlier results, IS1 was ineffective in inhibiting ABL, STAT5, and Src phosphorylation at the concentrations used. However, this derivative caused downregulation of Fyn expression, which could confirm its high inhibitory potential from in vitro kinase assays. […] Thus, these compounds were capable of blocking the pro-survival pathway facilitated by Akt kinase.
Prior to the experiment, K562 cells were seeded at a density of 500,000 cells per well in 3 cm Petri dishes (Nunc). […] After 16 h of exposure, cells were collected, centrifuged, and lysed on ice in complete RIPA buffer containing Halt Protease Inhibitor Cocktail, Halt Phosphatase Inhibitor Cocktail and 0.5 M EDTA (all from Thermo Scientific). Protein quantification was measured using a BCA Protein Assay Kit (Thermo Scientific) according to the manufacturer’s protocol. Equal amounts of the proteins were electrophoresed on SDS-page gels and transferred to nitrocellulose membranes. After blocking in 5% non-fat milk prepared in TTBS (Tris buffered saline with Tween 20), membranes were incubated overnight at 4 °C with specific primary antibodies (all from Cell Signalling) at a dilution of 1:1000 for c-ABL, phospho-c-ABL, Stat5, phospho-Stat5, cyclin E1, p27, PARP, AIF, BID, Src, Fyn, Akt, phospho-Akt, and at a dilution of 1:2000 for reference proteins (vinculin, β-actin and GAPDH). The next day, membranes were washed and incubated with horseradish peroxidase (HRP)-conjugated secondary antibodies for 1 h at room temperature. Chemiluminescence signals were recorded after staining with SuperSignal™ West Pico Chemiluminescent Substrate (Thermo Scientific) using a ChemiDoc™ XRS + System (BioRad). Experiments were performed four to five times. Densitometric analysis was performed using ImageJ software (Wayne Rasband, National Institutes of Health, USA).
For orientation: In western blotting, separated proteins are transferred to a membrane and probed.

T1 sequence (P07948 1-491 isoform P07948-2): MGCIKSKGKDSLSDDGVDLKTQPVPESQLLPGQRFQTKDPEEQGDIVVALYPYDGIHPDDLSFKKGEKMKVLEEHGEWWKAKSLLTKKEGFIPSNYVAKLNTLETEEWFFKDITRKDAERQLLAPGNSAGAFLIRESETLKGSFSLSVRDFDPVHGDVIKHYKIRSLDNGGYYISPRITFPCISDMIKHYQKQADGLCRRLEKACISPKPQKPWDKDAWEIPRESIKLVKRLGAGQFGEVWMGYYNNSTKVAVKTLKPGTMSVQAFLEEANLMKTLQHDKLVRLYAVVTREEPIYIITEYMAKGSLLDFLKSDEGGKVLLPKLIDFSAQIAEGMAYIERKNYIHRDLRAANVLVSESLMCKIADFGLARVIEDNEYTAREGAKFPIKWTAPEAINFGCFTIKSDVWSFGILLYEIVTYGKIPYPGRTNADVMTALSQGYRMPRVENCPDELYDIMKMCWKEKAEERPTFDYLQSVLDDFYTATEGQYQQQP

Usually inhibition stands for how much of the control response was suppressed. In general, IC50 refers to the point on the concentration scale where inhibition reaches its midpoint. On to `COc1ccccc1/C=C/c1nc(Sc2cccc(O)c2)c2ccccc2n1` [IS8, 3-{2-[(E)-2–(2-methoxyphenyl)ethenyl]quinazolin-4-ylthio}phenol], for which at 0.5 µM the inhibition against Lyn B was 0%. For the same compound, in the test with K562, the IC50 was 1.09 ± 0.299 µM. Also, in the test with U-251, the IC50 worked out at 25 ± 2.53 µM and the “Selectivity index U-251” value was found to be 1.00. For the same compound, in the test with A549, the IC50 was more than 25 µM and the “Selectivity index A549” value stood at 1.00. Besides, in the test with HCT 116 p53+/+, the IC50 is more than 25 µM and the “Selectivity index HCT 116 p53+/+” value came to 1.00. In the test on MCF-7, the IC50 stood at 8.03 ± 0.958 µM and the “Selectivity index MCF-7” value turned out to be 3.11. Besides, in the test on HCT 116 p53−/−, the IC50 was more than 25 µM and the “Selectivity index HCT 116 p53-/-” value was found to be 1.00. In the test on PANC-1, the IC50 was determined as 17.9 ± 1.32 µM and the “Selectivity index PANC-1” value was found to be 1.40. Moreover, the “Inhibition of STAT5 phosphorylation at Tyr694” value in the test on K562 cells (12 and 6 µM) was found to be 1.5 fold. Further, in the test with K562 cells, the ABL phosphorylation entry was “significant decrease (about two-fold)”, the AIF protein entry is reported as “significant increase”, the “Decrease of the level of BID” value is given as “approximately 2 fold” and the “Src protein expression / phosphorylation” value is reported as “almost two-fold decrease”. Further, in the test with K562 cells, the p27 expression entry is recorded as “more than two-fold increase”, the “Inhibition of expression of Ser473 phosphorylated Akt” value is reported as “more than two-fold” and the “Cyclin E1 protein level” value is “significantly downregulated”.
Take `COc1ccccc1/C=C/c1nc(Sc2ccc3c(c2)OCO3)c2ccccc2n1` [IS10, 5-{2-[(E)-2–(2-methoxyphenyl)ethenyl]quinazolin-4-ylthio}-2H-1,3-benzodioxole]: testing at 0.5 µM on Lyn B gave an inhibition of 0%. Besides, in the test with K562, the IC50 turned out to be 2.04 ± 0.454 µM and the “Selectivity index K562” value is on record as more than 12.24. In the test with U-251, the IC50 is more than 25 µM and the “Selectivity index U-251” value amounted to 1.00. In the test with A549, the IC50 is more than 25 µM and the “Selectivity index A549” value stood at 1.00. In addition, in the test on HCT 116 p53+/+, the IC50 turned out to be 10.7 ± 0.33 µM and the “Selectivity index HCT 116 p53+/+” value amounted to 2.33. In the test with MCF-7, the IC50 turned out to be 16.3 ± 3.22 µM and the “Selectivity index MCF-7” value worked out at 1.54. Further, in the test with HCT 116 p53−/−, the IC50 is 9.43 ± 1.49 µM and the “Selectivity index HCT 116 p53-/-” value is reported as 2.65. In addition, in the test with PANC-1, the IC50 is more than 25 µM and the “Selectivity index PANC-1” value was found to be 1.00. The “Decrease in p-STAT5 expression” value in the test on K562 cells (20 µM) is listed as “more than three-fold decrease”. In the test on K562 cells, the ABL phosphorylation entry was “significant decrease (about two-fold)”, the “Decrease of the level of BID” value is recorded as “approximately 2 fold”, the “Src protein expression / phosphorylation” value is given as “almost two-fold decrease” and the p27 expression entry was “more than two-fold increase”. Further, in the test with K562 cells, the “Inhibition of expression of Ser473 phosphorylated Akt” value is recorded as “more than two-fold” and the “Cyclin E1 protein level” value is reported as “significantly downregulated”.
On to `NC(=O)c1cccc(-c2cc(Nc3ccc(OC(F)(F)F)cc3)ncn2)c1` [GNF-2, reference compound], for which testing at 0.5 µM against Lyn B gave an inhibition of 0%. Also, in the test with K562, the IC50 came out at 0.208 ± 0.045 µM and the “Selectivity index K562” value is more than 120.19. In the test on U-251, the IC50 is more than 25 µM and the “Selectivity index U-251” value is 1.00. For the same compound, in the test on A549, the IC50 is more than 25 µM and the “Selectivity index A549” value was determined as 1.00. In addition, in the test on HCT 116 p53+/+, the IC50 is more than 25 µM and the “Selectivity index HCT 116 p53+/+” value is given as 1.00. Further, in the test on MCF-7, the IC50 was more than 25 µM and the “Selectivity index MCF-7” value was 1.00. Further, the IC50 in the test with HCT 116 p53−/− is more than 25 µM. In the test with PANC-1, the IC50 is more than 25 µM and the “Selectivity index PANC-1” value is 1.00. Also, in the test with K562 cells, the “Src protein expression / phosphorylation” value is given as “significant accumulation” and the STAT5 phosphorylation result is reported as “stronger effect”.
For the compound `COc1ccccc1/C=C/c1nc(Sc2ccccc2Cl)c2ccccc2n1` [IS1, 2-[(E)-2–(2-methoxyphenyl)ethenyl]-4–(2-chlorophenylthio)quinazoline], the inhibition at 0.5 µM at Lyn B was 67.1 ± 5.1%. For the same compound, in the test with K562, the IC50 was 6.43 ± 1.2 µM and the “Selectivity index K562” value is recorded as more than 3.89. Moreover, in the test on U-251, the IC50 was more than 25 µM and the “Selectivity index U-251” value was 1.00. Further, in the test on A549, the IC50 was more than 25 µM and the “Selectivity index A549” value was 1.00. Also, in the test with HCT 116 p53+/+, the IC50 was more than 25 µM and the “Selectivity index HCT 116 p53+/+” value was determined as 1.00. In addition, in the test on MCF-7, the IC50 came to 18.5 ± 3.87 µM and the “Selectivity index MCF-7” value was 1.35. In the test on HCT 116 p53−/−, the IC50 was more than 25 µM and the “Selectivity index HCT 116 p53-/-” value was 1.00. In the test with PANC-1, the IC50 is more than 25 µM and the “Selectivity index PANC-1” value is on record as 1.00. Further, in the test on K562 cells, the ABL phosphorylation result is listed as “ineffective”, the AIF protein entry was “significant increase”, the Fyn expression result is “downregulation” and the “Src protein expression / phosphorylation” value is on record as “ineffective”. Further, the STAT5 phosphorylation entry with K562 cells is given as “ineffective”.

These data come from PMC10120462, “Styrylquinazoline derivatives as ABL inhibitors selective for different DFG orientations” (Journal of Enzyme Inhibition and Medicinal Chemistry, 2023).
